These results are taken from patent US5514814A, “Pyrrolinone-based compounds” (Trustees of the University of Pennsylvania, priority 1994, dated 1996).

The target in the first experiment is T1, HIV-1 protease (Human immunodeficiency virus type 1 group M subtype B, UniProt P12497).
T1 construct: HIV-1 protease purified generally according to Heimbach; made in house
The experiment is described as follows: Inhibition of purified HIV-1 protease (IC50). Type of experiment: biochemical. The note with it: HIV-1 protease purified generally according to Heimbach, et al. The method, then:
The extent to which the compounds of the invention for inhibit and prevent the spread of HIV-1 protease was determined generally according to the methods disclosed by Thompson, et al., J. Med. Chem. 1992, 35, 1685. IC50 and CIC95 values were determined using HIV-1 protease purified generally according to Heimbach, et al., Biochem. Biophys. Res. Commun. 1989, 164, 955.
The compound `CC(C)C[C@@]1(C2=CN[C@@](Cc3ccccc3)(C[C@H](O)[C@H](Cc3ccccc3)NC(=O)O[C@H]3CCOC3)C2=O)NC=C([C@@H](Cc2ccccc2)C(=O)NC(C)(C)C)C1=O` [(53)] had an IC50 of 3.3 nM.

Consider `O=C(N[C@@H](Cc1ccccc1)[C@@H](O)C[C@]1(Cc2ccccc2)NC=C([C@H]2c3ccccc3C[C@H]2O)C1=O)O[C@H]1CCOC1` [(67)], for which it took 2 nM to reach half-maximal inhibition (IC50).

The compound `COC(=O)[C@H](Cc1ccccc1)C1=CN[C@@](CC(C)C)(C2=CN[C@@](Cc3ccccc3)(C[C@H](O)[C@H](Cc3ccccc3)NC(=O)OC(C)(C)C)C2=O)C1=O` [(59)] returned an IC50 of 37 nM.

Regarding `COC(=O)[C@H](Cc1ccccc1)C1=CN[C@@](CC(C)C)(C2=CN[C@@](Cc3ccccc3)(C[C@H](O)[C@H](Cc3ccccc3)NC(=O)O[C@H]3CCOC3)C2=O)C1=O` [(58)], the IC50 came out at 2 nM.

Regarding `CC(C)(C)OC(=O)N[C@@H](Cc1ccccc1)[C@@H](O)C[C@]1(Cc2ccccc2)NC=C([C@H]2c3ccccc3C[C@H]2O)C1=O` [(68)], the IC50 came out at 11.9 nM.

Regarding `CC(C)CC1(C2=CNC(Cc3ccccc3)(CC(O)C(Cc3ccccc3)NC(=O)OC(C)(C)C)C2=O)NC=C(C(Cc2ccccc2)C(N)=O)C1=O` (stereo not shown) [(11)], the IC50 was 10 nM.

Turning to `CC(C)C[C@@]1(C2=CN[C@@](Cc3ccccc3)(C[C@H](O)[C@H](Cc3ccccc3)NC(=O)OC(C)(C)C)C2=O)NC=C([C@@H](Cc2ccccc2)C(=O)NC(C)(C)C)C1=O` [(54)], inhibition was half-maximal at 48 nM (IC50).

`CC(C)C[C@@]1(C2=CN[C@@](Cc3ccccc3)(C[C@H](O)[C@H](Cc3ccccc3)NC(=O)O[C@H]3CCOC3)C2=O)NC=C([C@@H](Cc2ccccc2)C(N)=O)C1=O` [(49)]: the IC50 stood at 1.3 nM.

The next experiment concerns the target HIV1 (Human immunodeficiency virus type 1 (NEW YORK-5 ISOLATE), UniProt P12497). Nature of the experiment: Effective HIV1 inhibitor at stated concentration. The experiment is classed as biochemical.
Conditions: not given
Turning to `CC(C)=CCC1(Cc2ccccc2)NC=C(C2(CC(C)C)NC=C(C(CC3CCCCC3)C(O)C(O)CC(C)C)C2=O)C1=O` (stereo not shown) [Structure (9a)], the “found to act as effective HIV1 inhibitor at (concentration)” value amounted to 3.5 µM.

The test system of a further experiment is renin. Nature of the experiment: Effective renin inhibitor at stated concentration.
Conditions: not given
The experiment is classed as biochemical.
`CC(C)=CCC1(Cc2ccccc2)NC=C(C(CC(C)C)C(=O)NC(CC2CCCCC2)C(O)C(O)CC(C)C)C1=O` [Structure (10a), 5(S)-prenyl-(5-benzyl)pyrrolin-4-one-3!-2(R)-isobutylacetate-1-amino-1(S)-cyclohexylmethyl-2(R)3 3 (S)-dihydroxy-5-methylhexane!-amide]: the “found to act as an effective renin inhibitor at (concentration)” value was determined as 700 nM.

As a reminder, the IC50 is the midpoint of a concentration-inhibition curve. A higher IC50 goes with weaker potency.
